From patent publication US20220235057A1, “CYCLIC FORMYL AND CYCLIC KETONE COMPOUNDS, PREPARATION METHOD THEREFOR, AND PHARMACEUTICAL USE” (priority 2019, published 2022)
Converted amounts (≈) assume the structure as drawn.

Tests used:
Type in all cases: cell-based
dengue virus (DENV) = assay: anti-dengue virus activity (EC50)
[1] = tested on: drug resistant strains of Acinetobacter baumannii; assay: anti-drug resistant strains of Acinetobacter baumannii (MIC)
Usutu virus (USUV) = assay: anti-Usutu virus activity (inhibition rate); conditions: for inhibition at 11 µM / inhibition at 33 µM: Usutu virus
Zika virus (ZIKV) = assay: anti-Zika virus activity (inhibition rate); conditions: for inhibition at 11 µM / inhibition at 33 µM: Zika virus
[2] = resistant strain of Acinetobacter baumannii no. 17
[3] = resistant strain of Acinetobacter baumannii no. 18
[4] = resistant strain of Acinetobacter baumannii no. 19
[5] = resistant strain of Acinetobacter baumannii no. 20

Row | Compound | MIC [1, 2] [µg/mL] | MIC [1, 3] [µg/mL] | MIC [1, 4] [µg/mL] | MIC [1, 5] [µg/mL] | inhibition at 11 µM (Usutu virus (USUV); Drug concentration 11 μM) [%] | inhibition at 33 µM (Usutu virus (USUV); Drug concentration 33 μM) [%] | inhibition at 11 µM (Zika virus (ZIKV); Drug concentration 11 μM) [%] | inhibition at 33 µM (Zika virus (ZIKV); Drug concentration 33 μM) [%] | further results
1 | O=C1C2CCCCN2C(c2ccco2)N1c1ccc([N+](=O)[O-])cc1 (stereo not shown) [ZBJ-12A] |  |  |  |  |  |  |  |  | EC50 (dengue virus (DENV)): 1.2 µM
2 | O=C(NNc1ccc(F)cc1)[C@@H]1Cc2ccccc2N1 [ZBM-5] | 2 (≈ 7.37 µM) | 2 (≈ 7.37 µM) | 1 (≈ 3.69 µM) | 2 (≈ 7.37 µM) |  |  |  |  | 
3 | O=C(NNc1ccc(OCc2ccccc2)cc1)[C@@H]1Cc2ccccc2N1 [ZBM-6] | 2 (≈ 5.56 µM) | 4 (≈ 11.1 µM) | 2 (≈ 5.56 µM) | 4 (≈ 11.1 µM) |  |  |  |  | 
4 | Nc1ccc(NNC(=O)[C@@H]2Cc3ccccc3N2)cc1 [ZBM-8] | 2 (≈ 7.45 µM) | 4 (≈ 14.9 µM) | 2 (≈ 7.45 µM) | 4 (≈ 14.9 µM) |  |  |  |  | 
5 | O=C(NNc1ccc(F)cc1)C1CNc2ccccc21 (stereo not shown) [ZBM-11] | 1 (≈ 3.69 µM) | 2 (≈ 7.37 µM) | 1 (≈ 3.69 µM) | 1 (≈ 3.69 µM) |  |  |  |  | 
6 | O=C(NNc1ccc(F)cc1)[C@H]1CCNC1 [ZBM-19] | 2 (≈ 8.96 µM) | 2 (≈ 8.96 µM) | 2 (≈ 8.96 µM) | 1 (≈ 4.48 µM) |  |  |  |  | 
7 | O=C(NNc1ccc(F)cc1)c1c[nH]c2ccccc12 [ZBM-20] | 0.5 (≈ 1.86 µM) | 1 (≈ 3.71 µM) | 0.5 (≈ 1.86 µM) | 0.5 (≈ 1.86 µM) |  |  |  |  | 
8 | O=C(NNc1ccc(F)cc1)c1ccc[nH]1 [ZBM-21] | 0.5 (≈ 2.28 µM) | 0.5 (≈ 2.28 µM) | 0.5 (≈ 2.28 µM) | 0.5 (≈ 2.28 µM) |  |  |  |  | 
9 | O=C1[C@@H]2Cc3ccccc3N2[C@@H](c2ccc(O)cc2)N1NS(=O)(=O)c1ccc([N+](=O)[O-])cc1 [ZDL-39] |  |  |  |  | < 0 | < 0 | < 0 | 0 to 100 | 
10 | CC1(C)OC[C@]2(C)C(CC[C@@]3(C)[C@H](C[C@H]4N(NS(=O)(=O)c5ccc([N+](=O)[O-])cc5)C(=O)[C@@H]5Cc6ccccc6N54)C(=O)CC[C@@H]32)O1 (stereo partly shown) [ZDL-41] |  |  |  |  |  |  |  |  | Anti-USUV activity (inhibition rate) (Usutu virus (USUV); Drug concentration 11 μM): +++ (+++: Complete suppression); Anti-ZIKV activity (inhibition rate) (Zika virus (ZIKV); Drug concentration 11 μM): +++ (+++: Complete suppression)
11 | C=C1CC[C@@H]2[C@]3(C)COC(C)(C)O[C@@H]3CC[C@@]2(C)[C@@H]1C[C@H]1N(Nc2ccc([N+](=O)[O-])cc2)C(=O)[C@@H]2Cc3ccccc3N21 [ZDL-43] |  |  |  |  | > 100 | > 100 | > 100 | > 100 | 
12 | O=C1C2CCCC2C(c2ccccc2)N1c1ccccc1 (stereo not shown) [ZDL-60] |  |  |  |  | < 0 | 0 to 100 | < 0 | 0 to 100 | 
13 | O=C1C2CCCC2C(c2ccccc2)N1c1ccc([N+](=O)[O-])cc1 (stereo not shown) [ZDL-61] |  |  |  |  | < 0 | > 100 | < 0 | 0 to 100 | 
14 | O=C1C2CCCC2C(c2ccc(Cl)cc2)N1c1ccccc1 (stereo not shown) [ZDL-62] |  |  |  |  | < 0 | > 100 | < 0 | 0 to 100 | 
15 | COc1ccc([C@H]2N(Nc3ccc([N+](=O)[O-])cc3)C(=O)[C@@H]3Cc4ccccc4N32)cc1OC [ZDL-89] |  |  |  |  |  |  |  |  | EC50 (dengue virus (DENV)): 11.6 µM
16 | COc1ccc([C@H]2N(Nc3ccc([N+](=O)[O-])cc3)C(=O)[C@@H]3Cc4ccccc4N32)cc1O[Si](C)(C)C(C)(C)C [ZDL-93] |  |  |  |  |  |  |  |  | EC50 (dengue virus (DENV)): 24.8 µM
17 | O=C(NNc1ccccc1)[C@@H]1Cc2ccccc2N1 [ZDL-101] | 4 (≈ 15.8 µM) | 4 (≈ 15.8 µM) | 4 (≈ 15.8 µM) | 2 (≈ 7.9 µM) |  |  |  |  | 
18 | O=C(NNc1ccccc1)c1c[nH]c2ccccc12 [ZFD-38] | 8 (≈ 31.8 µM) | 8 (≈ 31.8 µM) | 8 (≈ 31.8 µM) | 4 (≈ 15.9 µM) |  |  |  |  | 
19 | O=C(NNc1ccccc1)c1ccc[nH]1 [ZFD-42] | 4 (≈ 19.9 µM) | 4 (≈ 19.9 µM) | 4 (≈ 19.9 µM) | 1 (≈ 4.97 µM) |  |  |  |  | 
20 | O=C(NNc1ccc(F)cc1)c1cc2ccccc2[nH]1 [ZFD-44] | 0.5 (≈ 1.86 µM) | 1 (≈ 3.71 µM) | 1 (≈ 3.71 µM) | 1 (≈ 3.71 µM) |  |  |  |  | 
21 | O=C1[C@@H]2Cc3ccccc3CN2C(c2ccc(O)cc2)N1c1ccc([N+](=O)[O-])cc1 (stereo partly shown) [ZSD-7] |  |  |  |  |  |  |  |  | Anti-USUV activity (inhibition rate) (Usutu virus (USUV); Drug concentration 11 μM): − (−: Inactive); Anti-USUV activity (inhibition rate) (Usutu virus (USUV); Drug concentration 33 μM): +++ (+++: Complete suppression); Anti-ZIKV activity (inhibition rate) (Zika virus (ZIKV); Drug concentration 11 μM): − (−: Inactive); Anti-ZIKV activity (inhibition rate) (Zika virus (ZIKV); Drug concentration 33 μM): +++ (+++: Complete suppression)
22 | COc1cc(C2N(c3ccc([N+](=O)[O-])cc3)C(=O)[C@@H]3Cc4ccccc4CN23)ccc1O (stereo partly shown) [ZSD-8] |  |  |  |  | < 0 | < 0 | 0 to 100 | > 100 | 
23 | O=C1[C@@H]2Cc3ccccc3CN2C(c2ccc(O)c(O)c2)N1c1ccc([N+](=O)[O-])cc1 (stereo partly shown) [ZSD-11] |  |  |  |  | < 0 | 0 to 100 | < 0 | > 100 | 
24 | COc1ccc(C2N(c3ccc([N+](=O)[O-])cc3)C(=O)[C@@H]3Cc4ccccc4CN23)cc1OC (stereo partly shown) [ZSD-12B] |  |  |  |  | < 0 | 0 to 100 | < 0 | < 0 | 
